Data taken from the supplement of paper PMC4862054.

Legend:
Conditions in all cases: incubation time: 72 h
MDA-MB-436 [1] = assay: normalised response (% of control), CellTiter-Glo; higher = more viable cells (100 = DMSO, 0 = benzethonium chloride kill control)
Description: (§1)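 DSRT, 72 h incubation, CellTox Green / CellTiter-Glo readout. Signal is normalised to DMSO and benzethonium chloride controls. Value is the normalised response at dose 3.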

BT-474 [2] = assay: as above
Description: as §1

CAL-148 [3] = assay: as above
Description: as §1

BT-549 [4] = assay: as above
Description: as §1

HDQ-P1 [5] = assay: as above
Description: as §1

SK-BR-3 [6] = assay: as above
Description: as §1

MDA-MB-231 [7] = assay: as above
Description: as §1

MCF-10A [8] = assay: as above
Description: as §1

DU-4475 [9] = assay: as above
Description: as §1

HCC1599 [10] = assay: as above
Description: as §1

MDA-MB-453 [11] = assay: as above
Description: as §1

HCC1937 [12] = assay: as above
Description: as §1

CAL-85-1 [13] = assay: as above
Description: as §1

CAL-120 [14] = assay: as above
Description: as §1

HCC1143 [15] = assay: as above
Description: as §1

MDA-MB-436 [16] = assay: normalised response (% of control), CellTox Green; higher = less cell death (100 = DMSO, 0 = benzethonium chloride kill control)
In short: (§2)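 After 72 h with compound in 384-well plates, breast cancer cell lines seeded as 20 µl suspension were read for CellTox Green fluorescence at 485/520 nm. CellTiter-Glo luminescence was then read after 10 min at room temperature. Compound was present at 5 concentrations in 10-fold steps over a 10,000-fold range set per compound, and plates were normalised to 0.1 % DMSO (100) and a positive kill control (0). Values are normalised signals, each at a single concentration.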

MDA-MB-468 [17] = assay: as above
In short: as §2

BT-474 [18] = assay: as above
In short: as §2

CAL-148 [19] = assay: as above
In short: as §2

BT-549 [20] = assay: as above
In short: as §2

HDQ-P1 [21] = assay: as above
In short: as §2

CAL-51 [22] = assay: as above
In short: as §2

MDA-MB-231 [23] = assay: as above
In short: as §2

MCF-10A [24] = assay: as above
In short: as §2

DU-4475 [25] = assay: as above
In short: as §2

Hs578T [26] = assay: as above
In short: as §2

HCC1599 [27] = assay: as above
In short: as §2

MDA-MB-453 [28] = assay: as above
In short: as §2

CAL-85-1 [29] = assay: as above
In short: as §2

CAL-120 [30] = assay: as above
In short: as §2

HCC1143 [31] = assay: as above
In short: as §2

MFM-223 [32] = assay: as above
In short: as §2

HCC1937 [33] = assay: as above
In short: as §2

MDA-MB-436 [34] = assay: normalised response (% of control), CellTiter-Glo; higher = more viable cells (100 = DMSO, 0 = benzethonium chloride kill control); remark: listed apart in the source
In short: as §2

MDA-MB-468 [35] = assay: as above
In short: as §2

BT-474 [36] = assay: as above; remark: listed apart in the source
In short: as §2

CAL-148 [37] = assay: as above; remark: listed apart in the source
In short: as §2

BT-549 [38] = assay: as above; remark: listed apart in the source
In short: as §2

HDQ-P1 [39] = assay: as above; remark: listed apart in the source
In short: as §2

CAL-51 [40] = assay: as above
In short: as §2

SK-BR-3 [41] = assay: as above; remark: listed apart in the source
In short: as §2

MDA-MB-231 [42] = assay: as above; remark: listed apart in the source
In short: as §2

MCF-10A [43] = assay: as above; remark: listed apart in the source
In short: as §2

DU-4475 [44] = assay: as above; remark: listed apart in the source
In short: as §2

Hs578T [45] = assay: as above
In short: as §2

HCC1599 [46] = assay: as above; remark: listed apart in the source
In short: as §2

MDA-MB-453 [47] = assay: as above; remark: listed apart in the source
In short: as §2

HCC1937 [48] = assay: as above; remark: listed apart in the source
In short: as §2

CAL-85-1 [49] = assay: as above; remark: listed apart in the source
In short: as §2

CAL-120 [50] = assay: as above; remark: listed apart in the source
In short: as §2

HCC1143 [51] = assay: as above; remark: listed apart in the source
In short: as §2

MFM-223 [52] = assay: as above
In short: as §2

Row | SMILES | normalised response (MDA-MB-436 [16]) [%] | normalised response (MDA-MB-468 [17]) [%] | normalised response (BT-474 [18]) [%] | normalised response (CAL-148 [19]) [%] | normalised response (BT-549 [20]) [%] | normalised response (HDQ-P1 [21]) [%] | normalised response (CAL-51 [22]) [%] | normalised response (MDA-MB-231 [23]) [%] | normalised response (MCF-10A [24]) [%] | normalised response (DU-4475 [25]) [%] | normalised response (Hs578T [26]) [%] | normalised response (HCC1599 [27]) [%] | normalised response (MDA-MB-453 [28]) [%] | normalised response (CAL-85-1 [29]) [%] | normalised response (CAL-120 [30]) [%] | normalised response (HCC1143 [31]) [%] | normalised response (MFM-223 [32]) [%] | normalised response (HCC1937 [33]) [%] | normalised response (MDA-MB-436 [34]) [%] | normalised response (MDA-MB-468 [35]) [%] | other results
1 | CS(=O)(=O)N1CCN(Cc2cc3nc(-c4cccc5[nH]ncc45)nc(N4CCOCC4)c3s2)CC1 [Pictilisib] (100 nM) | 107 | 143 | 98.8 | 92.1 | 101 | 107 | 103 | 92.3 | 106 | 101 | 109 | 108 | 104 | 107 | 102 | 110 | 105 |  |  |  | normalised response (MDA-MB-436 [1]): 92%; normalised response (BT-474 [2]): 86.9%; normalised response (CAL-148 [3]): 98.4%; normalised response (BT-549 [4]): 86.7%; normalised response (HDQ-P1 [5]): 82.4%; normalised response (SK-BR-3 [6]): 74.1%; normalised response (MDA-MB-231 [7]): 86.2%; normalised response (MCF-10A [8]): 84.8%; normalised response (DU-4475 [9]): 92%; normalised response (HCC1599 [10]): 93.6%; normalised response (MDA-MB-453 [11]): 88.5%; normalised response (HCC1937 [12]): 94.7%; normalised response (CAL-85-1 [13]): 106%; normalised response (CAL-120 [14]): 89.6%; normalised response (HCC1143 [15]): 91.7%
2 | O=C(Nc1c[nH]nc1-c1nc2ccc(CN3CCOCC3)cc2[nH]1)NC1CC1 [AT9283] (100 nM) | 86.7 | 70.7 | 103 | 20.3 | 121 | 99.6 | 71.7 | 14.5 | 70.3 | 97.6 | 94.9 | 110 | 100 | 84.6 | 84.9 | 101 | 103 | 85 | 99 | 29.7 | normalised response (BT-474 [36]): 73.8%; normalised response (CAL-148 [37]): 46.6%; normalised response (BT-549 [38]): 82.1%; normalised response (HDQ-P1 [39]): 96.9%; normalised response (CAL-51 [40]): 69%; normalised response (SK-BR-3 [41]): 86.4%; normalised response (MDA-MB-231 [42]): 78.8%; normalised response (MCF-10A [43]): 71.8%; normalised response (DU-4475 [44]): 88.9%; normalised response (Hs578T [45]): 88.8%; normalised response (HCC1599 [46]): 102%; normalised response (MDA-MB-453 [47]): 141%; normalised response (HCC1937 [48]): 93.8%; normalised response (CAL-85-1 [49]): 105%; normalised response (CAL-120 [50]): 85%; normalised response (HCC1143 [51]): 84.8%; normalised response (MFM-223 [52]): 89.2%
3 | CC/C(=C(\c1ccc(O)cc1)c1ccc(OCCN(C)C)cc1)c1ccccc1 [4-hydroxytamoxifen] (1000 nM) | 93.6 | 128 | 97.7 | 57.6 | 114 | 97.3 | 108 | 108 | 103 | 105 | 97.2 | 95.8 | 111 | 120 | 108 | 88.3 | 95.9 | 86.6 | 101 | 91.6 | normalised response (BT-474 [36]): 101%; normalised response (CAL-148 [37]): 102%; normalised response (BT-549 [38]): 93.6%; normalised response (HDQ-P1 [39]): 98.8%; normalised response (CAL-51 [40]): 102%; normalised response (SK-BR-3 [41]): 99.2%; normalised response (MDA-MB-231 [42]): 97%; normalised response (MCF-10A [43]): 98.8%; normalised response (DU-4475 [44]): 98.5%; normalised response (Hs578T [45]): 107%; normalised response (HCC1599 [46]): 105%; normalised response (MDA-MB-453 [47]): 102%; normalised response (HCC1937 [48]): 93.9%; normalised response (CAL-85-1 [49]): 97.2%; normalised response (CAL-120 [50]): 92.5%; normalised response (HCC1143 [51]): 98.9%; normalised response (MFM-223 [52]): 95.6%
4 | Cn1cc(CNCC2CCN(c3ncc(C(=O)NO)cn3)CC2)c2ccccc21 [Quisinostat] (100 nM) | 87.5 | 43.3 | 45.6 | 23.7 | 92.3 | -19.4 | 58.5 | 29.6 | 97.8 | 82.1 | 38.8 | 86.8 | 89 | -5.42 | 34.5 | 86.2 | 72.8 | 80 | 55.3 | 34.5 | normalised response (BT-474 [36]): 25.3%; normalised response (CAL-148 [37]): 8.89%; normalised response (BT-549 [38]): 46.1%; normalised response (HDQ-P1 [39]): 58.4%; normalised response (CAL-51 [40]): 40.5%; normalised response (SK-BR-3 [41]): 14.9%; normalised response (MDA-MB-231 [42]): 30%; normalised response (MCF-10A [43]): 51.6%; normalised response (DU-4475 [44]): 23.2%; normalised response (Hs578T [45]): 37.2%; normalised response (HCC1599 [46]): 42.1%; normalised response (MDA-MB-453 [47]): 2.02%; normalised response (HCC1937 [48]): 64.7%; normalised response (CAL-85-1 [49]): 29.5%; normalised response (CAL-120 [50]): 44.5%; normalised response (HCC1143 [51]): 25.4%; normalised response (MFM-223 [52]): 52.5%
